{
  "source": "patent US6153640A",
  "about": "“Benzo[3,4]cyclobuta[1,2-c]pyrrole compounds” (Adir et Compagnie, priority 1999, dated 2000)",
  "key": {"male CD mice": {"test_system": "male CD mice", "assay": "Test of aggressiveness in isolated mice", "assay_type": "in vivo", "settings": "Mus musculus, ip, 0.5 h; i.p.; treatment 30 minutes before pairing; 3 minutes observation; read-out: Inhibitory Dose 50 of the number or duration of the attacks", "description": "This test allows the evaluation of the intraspecies anti-aggressive activity of a product in mice that have been kept in isolation for several months.\nThe test uses male CD mice (Charles River) weighing from 22 to 25 g when they arrive at the animal house. On their arrival, the animals are isolated in individual cages made of opaque black polycarbonate (23×14×13 cm) with a grill lid, and are housed for a prolonged period (approximately six months) in the experimentation room.\nThe selection of aggressive pairs of mice that will be used for an extended period in the study commences after the animals have been isolated for one month. Once or twice per week a mouse from another cage (intruder) is placed in the cage of a (resident) mouse and the two animals are observed to see if they attack one another (sniffing, pursuing, nicking, biting) during that trial. At the end of the trial (maximum duration 10 minutes), each mouse is isolated again in its own cage. If attacks have occurred, the same pair will be tested again in the next trial; if there have been no attacks, each mouse of that pair will be placed in the presence of another mouse in the subsequent trial. […]\nThe test takes place once a week. […] The latent period (in seconds) of the first attack and the number and total duration (in seconds) of the attacks are recorded. […]"}, "[1]": {"test_system": "levels of serotonin, dopamine and noradrenaline in cingulate frontal cortex", "assay": "Microdialysis experiment in the rat (frontal cortex)", "assay_type": "in vivo", "settings": "10 mg/kg subcutaneous, baseline defined as 0%", "method": "Rats are anaesthetised with pentobarbital (60 mg/kg i.p.). They are placed in a Kopf stereotaxic device and the cannula guide is implanted in the cingulate frontal cortex in accordance with the coordinates described in the Paxinos and Watson atlas (1982) as follows: AP=+2.2; L=±0.6; DV=-0.2. The rats are placed in separate cages and are not used in dialysis until 5 days later. […] The probe is perfused at a flow rate of 1 μl/min. with a solution of 147.2 mM NaCl, 4 mM KCl and 2.3 mM CaCl2 adjusted to pH 7.3 with a phosphate buffer (0.1 M). Two hours after implantation, samples are collected every 20 minutes for 4 hours. Three baseline samples are taken before administration of the products to be tested. The rats are left in their individual cages for the whole of the experiment. When the experiment is finished, the rats are decapitated and the brain is removed and frozen in isopentane. Sections of a thickness of 100 μm are cut and stained with cresyl violet, which allows verification of the location of the probes. The simultaneous quantification of dopamine, norepinephrine and serotonin is carried out as follows: 20 μl of dialysis sample are diluted with 20 μl of mobile phase (NaH2 PO4 : 75 mM; EDTA: 20 μM; sodium 1-decanesulphonate: 1 mM; methanol: 17.5%; triethylamine: 0.01%; pH: 5.70) and 33 μl are analysed by HPLC with a reverse phase column thermostatically maintained at 45° C. and are quantified by means of a coulometric detector. The potential of the first electrode of the detector is set at -90 mV (reduction) and the second at +280 mV (oxidation). The mobile phase is injected with a pump at a flow rate of 2 ml/min. The sensitivity limits for dopamine, norepinephrine and serotonin are 0.55 fmole per sample. All the products of the invention are injected subcutaneously in a volume of 1.0 ml/kg. The products are dissolved in distilled water to which a few drops of lactic acid have been added if necessary."}, "serotonin reuptake site": {"target": "T1, serotonin reuptake site (Rattus norvegicus, UniProt P31652)", "T1 construct": "The membranes are prepared from rat frontal cortex; from tissue; host or cells: rat frontal cortex membranes", "T1 sequence (P31652 whole entry)": "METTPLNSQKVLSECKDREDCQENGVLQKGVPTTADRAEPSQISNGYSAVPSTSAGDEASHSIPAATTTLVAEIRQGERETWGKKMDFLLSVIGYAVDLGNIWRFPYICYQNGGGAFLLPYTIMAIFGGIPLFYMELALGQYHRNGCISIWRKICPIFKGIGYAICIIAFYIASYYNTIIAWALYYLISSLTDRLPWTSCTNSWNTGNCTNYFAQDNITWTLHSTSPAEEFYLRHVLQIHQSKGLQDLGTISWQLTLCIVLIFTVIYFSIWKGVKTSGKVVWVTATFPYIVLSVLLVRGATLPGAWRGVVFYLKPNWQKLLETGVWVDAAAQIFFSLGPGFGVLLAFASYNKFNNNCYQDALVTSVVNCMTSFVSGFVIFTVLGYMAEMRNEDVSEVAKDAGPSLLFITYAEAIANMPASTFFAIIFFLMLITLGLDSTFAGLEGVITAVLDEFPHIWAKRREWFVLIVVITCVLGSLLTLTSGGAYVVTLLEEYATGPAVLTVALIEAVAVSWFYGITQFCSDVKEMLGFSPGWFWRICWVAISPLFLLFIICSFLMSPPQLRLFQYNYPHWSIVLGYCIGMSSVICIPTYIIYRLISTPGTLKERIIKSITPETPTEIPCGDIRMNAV", "assay": "Affinity for serotonin reuptake sites ([3H]-paroxetine competition binding)", "settings": "[3H]-paroxetine 1.0 nM, rat frontal cortex membranes, 2 hours at 25° C., pH 7.4; read-out: pKi (-log Ki), affinity for serotonin reuptake sites (converted)", "method": "The incubation buffer contains […] TRIS-HCl (pH 7.4), 120 mM NaCl and 5 mM KCl. The non-specific binding is determined using 10 μM citalopram. At the end of the incubation, the incubation medium is filtered and washed three times with 5 ml of cooled buffer. The radioactivity retained on the filters is determined by liquid scintillation counting. The binding isotherms are analysed by non-linear regression to determine the IC50 values. Those values are converted into a dissociation constant (Ki) using the Cheng-Prusoff equation: […]\nThe results are expressed in pKi (-log Ki)."}},
  "data": [
    {"smiles": "c1ccc2c(c1)[C@@H]1CNC[C@]21COc1ccc2c(c1)OCO2", "note": "(relative stereo) [Example 1, cis-3a-[(3,4-Methylenedioxyphenoxy)methyl]-2,3,3a,7b-tetrahydro-1H-benzo[3,4]cyclobuta[1,2-c]pyrrole]", "values": [
      {"measurement": "ED50", "setting": "male CD mice", "value": "< 5", "unit": "mg/kg"},
      {"measurement": "increase in the level of dopamine, maximum % of the effect compared with the baseline level", "setting": "[1]", "value": "54.8%±6.4"},
      {"measurement": "increase in the level of noradrenaline, maximum % of the effect compared with the baseline level", "setting": "[1]", "value": "96.4%±7.8"},
      {"measurement": "increase in the level of serotonin, maximum % of the effect compared with the baseline level", "setting": "[1]", "value": "226.3%±20.1"},
      {"measurement": "Ki", "setting": "serotonin reuptake site", "value": 12.6, "unit": "nM"}
    ]}
  ]
}
